Results reported in PMC5562305, “Impact of novel palmitoylated prolactin-releasing peptide analogs on metabolic changes in mice with diet-induced obesity” (PLoS ONE, 2017).
Starred links: 1 amine or outer side, 2 acyl side, 3 side chain; linkers in the order of their positions; H or OH if unused. Residues, ends and D or L forms follow the SMILES beside them. Groups on a side chain read outwards from the residue. *: point of attachment. γGlu = O=C(O)[C@H](CCC(=O)[*:2])N[*:1]; Palmitoyl = CCCCCCCCCCCCCCCC(=O)*

Tested on: urinary metabolites
Assay: NMR-based metabolomics of urine of DIO mice
Type: in vivo, C57BL/6 mice
Set-up: key to DMA, Mean / DMG, Mean / MA, Mean / TMA, Mean / acetate, Mean / allantoin, Mean / carnitine, Mean / choline, Mean / cis-aconitate, Mean / creatine+creatinine, Mean / creatine, Mean / creatinine, Mean / ethanolamine, Mean / formate, Mean / galactose, Mean / glucose, Mean / glycine, Mean / lactate, Mean / succinate, Mean / vinylacetylglycine, Mean: TSA-normalized intensity of the metabolite's representative NMR signal
Details: urine NMR signal, DIO mice
Experimental: Urine samples for NMR-based metabolomics were collected prior to the start of the interventions and at the end of the experiment. For overnight urine collection (from 5 pm to 8 am), the mice were housed in individual metabolic cages (Tecniplast, Buguggiate, Italy) without access to food. Samples were collected with the addition of NaN3 and stored at -80°C until NMR analysis.
The urine samples were thawed at room temperature and centrifuged at 13 684 x g for 5 min prior to the NMR experiments. A 200-μl aliquot of supernatant was diluted with 340 μl of H2O mixed with 60 μl of phosphate buffer (1.5 M KH2PO4 in D2O containing 2 mM NaN3 and 0.1% trimethylsilyl propionic acid (TSP), pH 7.4) and transferred to a 5-mm NMR tube. The NMR data were acquired with a 600 MHz Bruker Avance III spectrometer (Bruker BioSpin, Rheinstetten, Germany) equipped with a 5-mm TCI cryogenic probe head. All of the experiments were performed at 300 K. Automatic tuning, matching, shimming and adjusting of the 90° pulse length were performed for each sample.
As mouse urine naturally contains urinary proteins, the NMR spectra were acquired using a Carr-Purcell-Meiboom-Gill (CPMG) pulse sequence with water presaturation (Bruker pulse sequence cpmgpr1d) to eliminate the strong protein background. […] For better metabolite identification, a short J-resolved experiment with presaturation (NS = 2, SW = 16 ppm, TD = 8k, number of increments = 40, SW = 78.125 Hz in the indirect dimension, and relaxation delay = 2 s) was executed for all samples. Additional two-dimensional ^1H-^1H correlation spectroscopy (COSY) and ^1H-^13C heteronuclear multiple-quantum correlation (HMQC) experiments (Bruker pulse sequences cosygpprqf and hmqcphpr) were performed for selected samples.
The acquired data were processed using Topspin 3.2 software (Bruker BioSpin, Rheinstetten, Germany). Line broadening of 0.3 Hz was applied on free induction decays (FIDs) prior to Fourier transformation. The spectra were automatically phased, baseline corrected and referenced to the signal of TSP (0.00 ppm).
The assignment of individual metabolites was achieved by comparing the proton spectra with the spectra of pure metabolites using Chenomx NMR Suite 7.6 (Chenomx Inc., Edmonton, AB, Canada), the HMDB database and previously published metabolomic data. The identification of metabolites was supported through J-resolved and COSY experiments and, if possible, confirmed using carbon chemical shifts extracted from the HMQC spectra.
For quantitation of individual metabolites, the CPMG spectra were uniformly binned in the range of 0.10–10.00 ppm to 0.01-ppm intervals using AMIX software (Bruker BioSpin, Rheinstetten, Germany). This procedure reduced the dimensionality of the data, eliminated chemical shift variations and thus simplified the reproducible automatic quantification. Regions corresponding to water (4.60–4.90 ppm) and urea (5.60–6.00 ppm) were removed prior to analysis. As the dilutions of the original urine samples differed (due to the differences in water intake during urine collection), all of the spectra were normalized to the total spectral area (TSA). For each identified metabolite, one representative signal was chosen and then quantified as the sum of appropriate adjacent 0.01-ppm bins to cover the whole signal width. The metabolite concentration was expressed as the TSA-normalized intensity of the respective signal. For selection of an appropriate statistical method (parametric or non-parametric) the Lilliefors test of normality was performed. […] Metabolite alterations with a P < 0.05 were considered statistically significant. Statistical analysis was performed using Matlab software (“MATLAB version 8.6 (R2015b). Natick, Massachusetts: The MathWorks Inc., 2015.,” n.d.). […]

SMILES: CCCCCCCCCCCCCCCC(=O)N[C@@H](CCC(=O)NCCCC[C@H](NC(=O)[C@@H](NC(=O)[C@H](CCC(=O)O)NC(=O)[C@H](CCSC)NC(=O)[C@H](CO)NC(=O)[C@H](Cc1c[nH]cn1)NC(=O)[C@H](CCCNC(=N)N)NC(=O)[C@H](Cc1c[nH]cn1)NC(=O)[C@@H](NC(=O)[C@H](CCCNC(=N)N)NC(=O)[C@@H](N)CO)[C@@H](C)O)[C@@H](C)CC)C(=O)N[C@H](C(=O)N1CCC[C@H]1C(=O)N[C@@H](CC(=O)O)C(=O)N[C@H](C(=O)N[C@@H](CC(N)=O)C(=O)N1CCC[C@H]1C(=O)N[C@@H](C)C(=O)N[C@@H](Cc1c[nH]c2ccccc12)C(=O)N[C@@H](Cc1ccc(O)cc1)C(=O)N[C@@H](C)C(=O)N[C@@H](CO)C(=O)N[C@@H](CCCNC(=N)N)C(=O)NCC(=O)N[C@H](C(=O)N[C@@H](CCCNC(=N)N)C(=O)N1CCC[C@H]1C(=O)N[C@H](C(=O)NCC(=O)N[C@@H](CCCNC(=N)N)C(=O)N[C@@H](Cc1ccccc1)C(N)=O)C(C)C)[C@@H](C)CC)[C@@H](C)CC)[C@@H](C)O)C(=O)O [analog 1] (H-SRTHRHSMEIK([γGlu-Palmitoyl])TPDINPAWYASRGIRPVGRF-NH2; N-terminus assumed)
- 2-OG (2.45 ppm), Saline/analog1 % (change of group mean vs saline): 0.026%
- 2-OG (3.01 ppm), Saline/analog1 % (change of group mean vs saline): -0.000867%
- 2-PY (8.33 ppm), Saline/analog1 % (change of group mean vs saline): -0.107%
- 3-indoxylsulfate (7.51 ppm), Saline/analog1 % (change of group mean vs saline): 0.024%
- 3-indoxylsulfate (7.71 ppm), Saline/analog1 % (change of group mean vs saline): 0.023%
- 4-PY (7.97 ppm), Saline/analog1 % (change of group mean vs saline): -0.088%
- 4-PY (8.55 ppm), Saline/analog1 % (change of group mean vs saline): -0.153%
- DMA, Saline/analog1 % (change of group mean vs saline): 0.019%
- MNA-Nox (8.75 ppm), Saline/analog1 % (change of group mean vs saline): -0.117%
- N-carbamoylalanine (2.38 ppm), Saline/analog1 % (change of group mean vs saline): 0.020%
- N-carbamoylalanine (3.31 ppm), Saline/analog1 % (change of group mean vs saline): -0.071%
- N-isovalerylglycine + oxovalerate (0.92 ppm), Saline/analog1 % (change of group mean vs saline): 0.093%
- TMA, Saline/analog1 % (change of group mean vs saline): -0.084%
- acetate, Saline/analog1 % (change of group mean vs saline): 0.161%
- allantoin, Saline/analog1 % (change of group mean vs saline): 0.042%
- carnitine, Saline/analog1 % (change of group mean vs saline): 0.063%
- choline, Saline/analog1 % (change of group mean vs saline): 0.027%
- cis-aconitate, Saline/analog1 % (change of group mean vs saline): -0.010%
- citrate (2.55 ppm), Saline/analog1 % (change of group mean vs saline): -0.078%
- citrate (2.69 ppm), Saline/analog1 % (change of group mean vs saline): -0.081%
- creatine+creatinine, Saline/analog1 % (change of group mean vs saline): 0.078%
- creatine, Saline/analog1 % (change of group mean vs saline): -0.018%
- creatinine, Saline/analog1 % (change of group mean vs saline): 0.087%
- ethanolamine, Saline/analog1 % (change of group mean vs saline): -0.040%
- formate, Saline/analog1 % (change of group mean vs saline): 0.026%
- fumarate, Saline/analog1 % (change of group mean vs saline): -0.176%
- galactose, Saline/analog1 % (change of group mean vs saline): -0.073%
- glucose, Saline/analog1 % (change of group mean vs saline): -0.101%
- glycine, Saline/analog1 % (change of group mean vs saline): -0.064%
- hexanoylglycine + acids (0.88 ppm), Saline/analog1 % (change of group mean vs saline): 0.195%
- hippurate (7.55 ppm), Saline/analog1 % (change of group mean vs saline): -0.067%
- hippurate (7.64 ppm), Saline/analog1 % (change of group mean vs saline): -0.069%
- hippurate (7.84 ppm), Saline/analog1 % (change of group mean vs saline): -0.067%
- lactate, Saline/analog1 % (change of group mean vs saline): 0.188%
- multiplet acids (1.6 ppm), Saline/analog1 % (change of group mean vs saline): 0.198%
- putrescin, Saline/analog1 % (change of group mean vs saline): 0.025%
- succinate, Saline/analog1 % (change of group mean vs saline): 0.118%
- taurine (3.27 ppm), Saline/analog1 % (change of group mean vs saline): -0.289%
- taurine (3.43 ppm), Saline/analog1 % (change of group mean vs saline): -0.352%
- trigonelline (8.84 ppm), Saline/analog1 % (change of group mean vs saline): -0.128%
- trigonelline (9.13 ppm), Saline/analog1 % (change of group mean vs saline): -0.163%
- vinylacetylglycine, Saline/analog1 % (change of group mean vs saline): 0.197%
- 2-OG (2.45 ppm), Mean (group mean): 12.062
- 2-OG (3.01 ppm), Mean (group mean): 10.231
- 2-PY (8.33 ppm), Mean (group mean): 1.038
- 3-indoxylsulfate (7.51 ppm), Mean (group mean): 1.334
- 3-indoxylsulfate (7.71 ppm), Mean (group mean): 0.788
- 4-PY (7.97 ppm), Mean (group mean): 1.650
- 4-PY (8.55 ppm), Mean (group mean): 0.491
- DMA, Mean (group mean): 5.115
- DMG, Mean (group mean): 1.908
- MA, Mean (group mean): 2.952
- MNA (8.90 ppm), Mean (group mean): 0.369
- MNA (8.97 ppm), Mean (group mean): 0.353
- MNA (9.265 ppm), Mean (group mean): 0.370
- MNA-Nox (7.75 ppm), Mean (group mean): 0.962
- MNA-Nox (8.13 ppm), Mean (group mean): 0.690
- MNA-Nox (8.49 ppm), Mean (group mean): 0.452
- MNA-Nox (8.75 ppm), Mean (group mean): 0.431
- N-carbamoylalanine (2.38 ppm), Mean (group mean): 10.982
- N-carbamoylalanine (3.31 ppm), Mean (group mean): 8.810
- N-isovalerylglycine + oxovalerate (0.92 ppm), Mean (group mean): 15.843
- TMA, Mean (group mean): 11.127
- acetate, Mean (group mean): 4.363
- allantoin, Mean (group mean): 21.031
- carnitine, Mean (group mean): 6.328
- choline, Mean (group mean): 2.023
- cis-aconitate, Mean (group mean): 8.788
- citrate (2.55 ppm), Mean (group mean): 30.039
- citrate (2.69 ppm), Mean (group mean): 27.401
- creatine+creatinine, Mean (group mean): 24.594
- creatine, Mean (group mean): 6.851
- creatinine, Mean (group mean): 12.065
- ethanolamine, Mean (group mean): 7.631
- formate, Mean (group mean): 0.204
- fumarate, Mean (group mean): 0.145
- galactose, Mean (group mean): 0.718
- glucose, Mean (group mean): 3.260
- glycine, Mean (group mean): 5.697
- hexanoylglycine + acids (0.88 ppm), Mean (group mean): 15.760
- hippurate (7.55 ppm), Mean (group mean): 4.327
- hippurate (7.64 ppm), Mean (group mean): 2.207
- hippurate (7.84 ppm), Mean (group mean): 4.594
- lactate, Mean (group mean): 7.323
- multiplet acids (1.6 ppm), Mean (group mean): 12.799
- putrescin, Mean (group mean): 9.134
- succinate, Mean (group mean): 12.041
- taurine (3.27 ppm), Mean (group mean): 18.310
- taurine (3.43 ppm), Mean (group mean): 14.649
- trigonelline (8.84 ppm), Mean (group mean): 0.272
- trigonelline (9.13 ppm), Mean (group mean): 0.107
- vinylacetylglycine, Mean (group mean): 3.595
